Results from patent publication EP2518054A1, “AMIDE COMPOUND” (Takeda Pharmaceutical Company Limited, priority 2009, dated 2011).

Each compound was assayed against T1, human GPR52 (Homo sapiens, UniProt Q9Y2T5) (assay: Increase of intracellular cAMP concentration in human GPR52-expressing CHO cell (AlphaScreen cAMP assay)). Settings: 1µM test compound; 100% = cAMP with 1 µM Reference Example 79, 0% = DMSO; human GPR52-expressing CHO(dhfr-) cells, 37°C, 30 min.
T1 construct: expressed in transfected cells; host or cells: CHO(dhfr-) cells
Format: cell-based
Method: Increase of intracellular cAMP concentration in human GPR52-expressing CHO cell
Using OptiPlate-384 (PerkinElmer Inc.), 1×10^4 human GPR52-expressing CHO(dhfr-) cells were incubated together with various concentration(10^-5µM - 10µm) of a test compound in an assay buffer (30 µL, HBSS (containing Ca^2+ and Mg^2+), 0.5% BSA, 100 µM IBMX, 100 µM Ro20-1724, 5 mM HEPES (pH 7.55)) at 37°C for 30 min. Thereafter, according to the protocol of AlphaScreen CAMP Assay Kit (PerkinElmer Inc.), the intracellular cAMP concentration was measured by EnVision (PerkinElmer Inc.). The GPR52 agonist activity was calculated, assuming the intracellular cAMP concentration in the presence of […] N-(2-hydroxyethyl)-3-[2-[3-(trifluoromethyl)benzyl]-1-benzofuran-4-yl]benzamide (Reference Example 79) to be 100% and assuming the intracellular cAMP concentration when DMSO was added instead of the test compound to be 0%.

T1 sequence (Q9Y2T5 whole entry): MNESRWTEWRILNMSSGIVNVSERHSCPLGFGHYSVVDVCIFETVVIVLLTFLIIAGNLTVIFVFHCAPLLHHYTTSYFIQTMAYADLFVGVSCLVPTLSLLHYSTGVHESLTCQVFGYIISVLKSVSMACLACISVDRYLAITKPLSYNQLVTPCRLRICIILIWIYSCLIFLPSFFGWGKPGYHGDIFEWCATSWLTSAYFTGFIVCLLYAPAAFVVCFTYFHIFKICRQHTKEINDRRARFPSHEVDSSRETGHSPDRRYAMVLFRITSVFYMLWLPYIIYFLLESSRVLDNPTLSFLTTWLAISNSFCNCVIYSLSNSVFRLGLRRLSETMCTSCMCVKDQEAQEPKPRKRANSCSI

SMILES	GPR52 agonist activity (%)
Cc1nc(-c2cccc3nn(Cc4cc(F)cc(C(F)(F)F)c4)cc23)sc1C(N)=O [Example 86, 2-[2-[3-fluoro-5-(trifluoromethyl)benzyl]-2H-indazol-4-yl]-4-methyl-1,3-thiazole-5-carboxamide]	102

Same assay, conditions: CHO, 1µM test compound; 100% = cAMP with 1 µM Reference Example 79, 0% = DMSO; human GPR52-expressing CHO(dhfr-) cells, 37°C, 30 min; read-out: GPR52 agonist activity (%)

activity at 1 µM [%]	SMILES
102	COCCNC(=O)c1c(C)nn(-c2cccc3cc(Cc4cccc(C(F)(F)F)c4)sc23)c1C [Example 51, N-(2-methoxyethyl)-3,5-dimethyl-1-[2-[3-(trifluoromethyl)benzyl]-1-benzothiophen-7-yl]-1H-pyrazole-4-carboxamide]
83	Cc1c(C(=O)NCCO)c(CO)nn1-c1cccc2cc(Cc3cccc(C(F)(F)F)c3)sc12 [Example 67, N-(2-hydroxyethyl)-3-(hydroxymethyl)-5-methyl-1-[2-[3-(trifluoromethyl)benzyl]-1-benzothiophen-7-yl]-1H-pyrazole-4-carboxamide]
94	Cc1nn(-c2cccc3cc(Cc4cccc(C(F)(F)F)c4)sc23)cc1C(=O)NCC(N)=O [Example 16, N-(2-amino-2-oxoethyl)-3-methyl-1-[2-[3-(trifluoromethyl)benzyl]-1-benzothiophen-7-yl]-1H-pyrazole-4-carboxamide]
93	Cc1nn(-c2ccc(F)c3cc(Cc4cc(F)cc(Cl)c4)sc23)c(C)c1C(=O)NCC(N)=O [Example 59, N-(2-amino-2-oxoethyl)-1-[2-(3-chloro-5-fluorobenzyl)-4-fluoro-1-benzothiophen-7-yl]-3,5-dimethyl-1H-pyrazole-4-carboxamide]
94	COc1cc(Cc2cc3cccc(-n4nc(C)c(C(=O)NCCO)c4C)c3s2)ccc1F [Example 97, 1-[2-(4-fluoro-3-methoxybenzyl)-1-benzothiophen-7-yl]-N-(2-hydroxyethyl)-3,5-dimethyl-1H-pyrazole-4-carboxamide]
96	COCCNC(=O)c1c(C)nn(-c2cccc3cc(Cc4cc(F)cc(Cl)c4)sc23)c1C [Example 57, 1-[2-(3-chloro-5-fluorobenzyl)-1-benzothiophen-7-yl]-N-(2-methoxyethyl)-3,5-dimethyl-1H-pyrazole-4-carboxamide]
79	COCCNC(=O)c1cnn(-c2cccc3cc(Cc4cccc(C(F)(F)F)c4)sc23)c1C [Example 13, N-(2-methoxyethyl)-5-methyl-1-[2-[3-(trifluoromethyl)benzyl]-1-benzothiophen-7-yl]-1H-pyrazole-4-carboxamide]
90	COCCNC(=O)c1sc(-c2cccc3cc(Cc4cccc(C(F)(F)F)c4)sc23)nc1C [Example 40, N-(2-methoxyethyl)-4-methyl-2-[2-[3-(trifluoromethyl)benzyl]-1-benzothiophen-7-yl]-1,3-thiazole-5-carboxamide]
84	COc1cc(Cc2cc3cccc(-n4nc(C)c(C(=O)NCC(N)=O)c4C)c3s2)ccc1F [Example 96, N-(2-amino-2-oxoethyl)-1-[2-(4-fluoro-3-methoxybenzyl)-1-benzothiophen-7-yl]-3,5-dimethyl-1H-pyrazole-4-carboxamide]
97	Cc1nn(-c2cccc3cc(Cc4cccc(C(F)(F)F)c4)sc23)c(CO)c1C(N)=O [Example 64, 5-(hydroxymethyl)-3-methyl-1-[2-[3-(trifluoromethyl)benzyl]-1-benzothiophen-7-yl]-1H-pyrazole-4-carboxamide]
104	Cc1nn(-c2cccc3nn(Cc4cc(F)cc(C(F)(F)F)c4)cc23)c(C)c1C(N)=O [Example 83, 1-[2-[3-fluoro-5-(trifluoromethyl)benzyl]-2H-indazol-4-yl]-3,5-dimethyl-1H-pyrazole-4-carboxamide]
78	Cc1c(C(N)=O)c(CO)nn1-c1cccc2cc(Cc3cccc(C(F)(F)F)c3)sc12 [Example 69, 3-(hydroxymethyl)-5-methyl-1-[2-[3-(trifluoromethyl)benzyl]-1-benzothiophen-7-yl]-1H-pyrazole-4-carboxamide]
94	Cc1nn(-c2cccc3sc(Cc4cccc(C(F)(F)F)c4)cc23)c(C)c1C(=O)NCC(N)=O [Example 105, N-(2-amino-2-oxoethyl)-3,5-dimethyl-1-[2-[3-(trifluoromethyl)benzyl]-1-benzothiophen-4-yl]-1H-pyrazole-4-carboxamide]

Continued, compound first:

SMILES	activity at 1 µM [%]
Cc1nn(-c2ccc(F)c3cc(Cc4cccc(C(F)(F)F)c4)sc23)c(CO)c1C(=O)NCC(N)=O [Example 72, N-(2-amino-2-oxoethyl)-1-[4-fluoro-2-[3-(trifluoromethyl)benzyl]-1-benzothiophen-7-yl]-5-(hydroxymethyl)-3-methyl-1H-pyrazole-4-carboxamide]	96
Cc1nn(-c2cccc3cc(Cc4cccc(C(F)(F)F)c4)sc23)c(CO)c1C(=O)NCC(N)=O [Example 63, N-(2-amino-2-oxoethyl)-5-(hydroxymethyl)-3-methyl-1-[2-[3-(trifluoromethyl)benzyl]-1-benzothiophen-7-yl]-1H-pyrazole-4-carboxamide]	94
Cc1cn(-c2cccc3cc(Cc4cccc(C(F)(F)F)c4)sc23)nc1C(=O)NCC(N)=O [Example 30, N-(2-amino-2-oxoethyl)-4-methyl-1-[2-[3-(trifluoromethyl)benzyl]-1-benzothiophen-7-yl]-1H-pyrazole-3-carboxamide]	96
O=C(NCCO)c1sc(-c2cccc3cc(Cc4cccc(C(F)(F)F)c4)sc23)nc1C(F)(F)F [Example 87, N-(2-hydroxyethyl)-4-(trifluoromethyl)-2-[2-[3-(trifluoromethyl)benzyl]-1-benzothiophen-7-yl]-1,3-thiazole-5-carboxamide]	92
Cc1nc(-c2cccc3cc(Cc4cccc(C(F)(F)F)c4)sc23)sc1C(=O)NCCC#N [Example 38, N-(2-cyanoethyl)-4-methyl-2-[2-[3-(trifluoromethyl)benzyl]-1-benzothiophen-7-yl]-1,3-thiazole-5-carboxamide]	101
Cc1nc(-c2cccc3cc(Cc4cccc(C(F)(F)F)c4)sc23)n(C)c1C(=O)NCC(N)=O [Example 47, N-(2-amino-2-oxoethyl)-1,4-dimethyl-2-[2-[3-(trifluoromethyl)benzyl]-1-benzothiophen-7-yl]-1H-imidazole-5-carboxamide]	93
Cc1nc(-c2cccc3nn(Cc4cc(F)cc(C(F)(F)F)c4)cc23)sc1C(N)=O [Example 86, 2-[2-[3-fluoro-5-(trifluoromethyl)benzyl]-2H-indazol-4-yl]-4-methyl-1,3-thiazole-5-carboxamide]	85
COCc1c(C(=O)NCCO)c(C)nn1-c1cccc2cc(Cc3cccc(C(F)(F)F)c3)sc12 [Example 70, N-(2-hydroxyethyl)-5-(methoxymethyl)-3-methyl-1-[2-[3-(trifluoromethyl)benzyl]-1-benzothiophen-7-yl]-1H-pyrazole-4-carboxamide]	91
Cc1nn(-c2cccc3sc(Cc4cccc(C(F)(F)F)c4)cc23)c(C)c1C(=O)NCCO [Example 106, N-(2-hydroxyethyl)-3,5-dimethyl-1-[2-[3-(trifluoromethyl)benzyl]-1-benzothiophen-4-yl]-1H-pyrazole-4-carboxamide]	97
Cc1cccc(Cc2cc3cccc(-n4nc(C)c(C(=O)NCCO)c4C)c3s2)c1 [Example 94, N-(2-hydroxyethyl)-3,5-dimethyl-1-[2-(3-methylbenzyl)-1-benzothiophen-7-yl]-1H-pyrazole-4-carboxamide]	96

Same assay, conditions: concentration of the test compound at which it shows 50% activity; human GPR52-expressing CHO(dhfr-) cells; read-out: GPR52 agonist activity EC50

SMILES	EC50 [nM]
Cc1nc(-c2cccc3nn(Cc4cccc(C(F)(F)F)c4)cc23)sc1C(N)=O [Example 41, 4-methyl-2-[2-[3-(trifluoromethyl)benzyl]-2H-indazol-4-yl]-1,3-thiazole-5-carboxamide]	49
Cc1nn(-c2cccc3cc(Cc4cccc(C(F)(F)F)c4)sc23)c(CO)c1C(N)=O [Example 64, 5-(hydroxymethyl)-3-methyl-1-[2-[3-(trifluoromethyl)benzyl]-1-benzothiophen-7-yl]-1H-pyrazole-4-carboxamide]	18
